PubChem BioAssay (NCI)
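Values below derive from 48-hour exposures of cells grown in 96-well plates, with endpoints linearly interpolated between the two concentrations bracketing the appropriate inhibition level. GI50 is the concentration that inhibits growth by half. The concentration for full growth arrest is given as TGI.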

Legend:
Test in all cases: NCI anticancer screen, dose series, 48 h
[1] = test system: NCI-H226 lung
[2] = test system: NCI-H23 lung
[3] = test system: NCI-H460 lung
[4] = test system: NCI-H522 lung
[5] = test system: OVCAR-3 ovarian
[6] = test system: OVCAR-4 ovarian
[7] = test system: OVCAR-5 ovarian
[8] = test system: OVCAR-8 ovarian
[9] = test system: PC-3 prostate
[10] = test system: RPMI-8226 leukemia
[11] = test system: RXF 393 renal
[12] = test system: SF-268 CNS
[13] = test system: SF-295 CNS
[14] = test system: SF-539 CNS
[15] = test system: SK-MEL-2 melanoma
[16] = test system: SK-MEL-28 melanoma
[17] = test system: SK-MEL-5 melanoma
[18] = test system: SK-OV-3 ovarian
[19] = test system: SN12C renal
[20] = test system: SNB-19 CNS
[21] = test system: SNB-75 CNS
[22] = test system: SR leukemia
[23] = test system: T-47D breast
[24] = test system: TK-10 renal
[25] = test system: U251 CNS
[26] = test system: UACC-257 melanoma
[27] = test system: UACC-62 melanoma
[28] = test system: UO-31 renal

C=C1CCC2C3(C)COC(c4ccccc4F)OC3CCC2(C)C1C/C=C1/C(=O)OCC1O (stereo unspecified)
GI50 [1]: 1.67 µM | TGI [1]: 3.3 µM | GI50 [2]: 10.8 µM | TGI [2]: 26 µM | GI50 [3]: 3.36 µM | TGI [3]: > 100 µM | GI50 [4]: 1.57 µM | TGI [4]: 3.12 µM | GI50 [5]: 1.8 µM | TGI [5]: 3.7 µM | GI50 [6]: 2.45 µM | TGI [6]: 7.65 µM | GI50 [7]: 2.47 µM | TGI [7]: 5.78 µM | GI50 [8]: 1.98 µM | TGI [8]: 5.53 µM | GI50 [9]: 3.45 µM | TGI [9]: 14.6 µM | GI50 [10]: 2.6 µM | TGI [10]: 7.35 µM | GI50 [11]: 3 µM | TGI [11]: 12.2 µM | GI50 [12]: 3.85 µM | TGI [12]: 16.4 µM | GI50 [13]: 2.13 µM | TGI [13]: 5.24 µM | GI50 [14]: 1.94 µM | TGI [14]: 3.52 µM | GI50 [15]: 2.67 µM | TGI [15]: 7.79 µM | GI50 [16]: 2.92 µM | TGI [16]: 7.63 µM | GI50 [17]: 5.67 µM | TGI [17]: 18.2 µM | GI50 [18]: 18.6 µM | TGI [18]: 35.4 µM | GI50 [19]: 1.99 µM | TGI [19]: 4.49 µM | GI50 [20]: 11.5 µM | TGI [20]: 26.8 µM | GI50 [21]: 2.82 µM | TGI [21]: 12.8 µM | GI50 [22]: 2.5 µM | TGI [22]: 19.9 µM | GI50 [23]: 3.76 µM | TGI [23]: 16.9 µM | GI50 [24]: 8.18 µM | TGI [24]: 22.2 µM | GI50 [25]: 1.96 µM | TGI [25]: 3.97 µM | GI50 [26]: 2.36 µM | TGI [26]: 13.2 µM | GI50 [27]: 3.17 µM | TGI [27]: 12.1 µM | GI50 [28]: 1.97 µM | TGI [28]: 5.54 µM
